# Peptide text beside a SMILES is read from it.
# Experiments:
# [1] = system: SD rats; assay type: in vivo; design: MV: minute ventilation: unit not given here
# Method: (§1) Animals in the blank administration group were not modeled, and inhaled a high-concentration polypeptide aerosol (0.48 mg/L) through nose and mouth every day. Animals in the blank control group were instilled with a 0.5 mL 0.9% sodium chloride injection through trachea. After the remaining groups were slightly anesthetized with ether, the model control group, the erythromycin group, the budesonide group, the low-dose polypeptide treatment group, and the high-dose polypeptide treatment group were instilled with a 1×10^8 CFU/mL mixed bacteria solution of Staphylococcus aureus, Streptococcus pneumoniae, and Escherichia coli through trachea, 0.5 mL/rat, respectively, and the blank control group was instilled with a 0.9% sodium chloride injection of a same volume.
# (§2) Each group was administrated for the first time at 2 h after modeling. After the experiment begun, 7.16 mg/mL and 71.6 mg/mL peptide solutions were atomized into aerosol particles with target concentrations of 0.07 and 0.48 mg/L every day, and the animals in the low-dose peptide treatment group and the high-dose peptide treatment group (0.54 mg/kg and 3.7 mg/kg, corresponding to drug concentrations 0.07 and 0.48 mg/L respectively) inhaled the aerosol particles with corresponding concentrations through mouth and nose respectively for 7 consecutive days, 10 min/time, 3 times a day; the blank administration group (cumulative dose 22.2 mg/kg, corresponding to a drug concentration 0.48 mg/L) inhaled 0.48 mg/L peptide aerosol particles through mouth and nose every day for 7 consecutive days, 20 min/time, 3 times a day; the blank control group and the model control group inhaled a 0.9% sodium chloride solution for the same time according to the same method; the erythromycin group and the budesonide group were administrated with a 5 mg/mL erythromycin solution and a 0.05 mg/mL budesonide suspension respectively for the same time according to the same method; and body weight of each group was tested every day.
# (§3) Except the blank administration group, half animals of the remaining groups were randomly selected for lung function test, gross anatomy examination, and pathological test on D4 day, and lungs of 3 animals in each group were selected for bacteria culture and counting; and on D8 day, the remaining animals were subjected to lung function test, gross anatomy examination, and pathological test, and lungs of 3 animals in each group were selected for bacteria culture and counting (the blank control group and the blank administration group were not examined).
# Experimental steps of gross anatomical examination and pathological test: the rats to be tested were anesthetized by intraperitoneal injection of 20% ethyl carbamate (dose 1000 mg/kg), and lung functions of the rats in each group were first tested with a lung function tester. Blood was collected from a ventral aorta, partial pressure of oxygen (PaO2) and partial pressure of carbon dioxide (PaCO2) in the blood of the rats were measured by using a blood gas analyzer, then left lower lobe lung tissues were taken, fixed in formalin, embedded, sectioned, and stained with HE, and pathological changes were observed under the light microscope.
# [2] = Body weight of pneumonia model rats during the experiment; assay type: in vivo, SD rats; conditions: FIG. 4
# Method: as §2
# [3] = system: Staphylococcus aureus; experiment: animal or person; assay type: in vivo; conditions: vs model control group
# Method: as §1
# (§4) A specific modeling method was as follows: a rat was anesthetized by ether inhalation and lied on an anatomical plate at an angle of 30-45°, trachea of the rat was exposed under an otoscope, a long puncture needle was connected to a 1 mL syringe and inserted into the trachea, each rat was injected with 0.5 mL of mixed bacteria, the puncture needle was pulled out after the injection, the rat was still kept at the original tilt position for about 10 min, and the bacteria solution flowed into bronchus and alveoli due to gravity to cause infection, so as to induce a rat pneumonia model.
# as §2, §3
# (§5) Experimental steps of bacteria culture: except the blank administration group, six animals were randomly selected from each of the remaining groups (three animals were randomly selected from the first and last anatomies), left middle lobe lung tissues were taken, washed with 0.9% sodium chloride injection, added with double weight of 0.9% sodium chloride injection, and ground into homogenate, the homogenate was inoculated into a meat extract agar medium and cultured at 37° C. for 16 to 18 h, bacteria were isolated, and each isolated bacteria suspension was diluted to 10^−1, 10^−2, 10^−3, 10^−4, 10^−5, 10^−6, 10^−7 and 10^−8 according to 10 times gradient, namely, 9 mL normal saline plus 1 mL bacteria suspension was 10^−1, and so on. […]
# [4] = system: Streptococcus pneumoniae; experiment: animal or person; assay type: in vivo; conditions: vs model control group
# Method: as §1, §4, §2, §3, §5
# [5] = system: Escherichia coli; experiment: animal or person; assay type: in vivo; conditions: vs model control group
# Method: as §1, §4, §2, §3, §5
# [6] = D8, not modeled rats (blank administration group), cumulative dose 22.2 mg/kg (0.48 mg/L aerosol) inhaled 7 days
# [7] = D4, high-dose 3.7 mg/kg (0.48 mg/L aerosol) inhaled
# [8] = D4, low-dose 0.54 mg/kg (0.07 mg/L aerosol) inhaled
# [9] = D8, high-dose 3.7 mg/kg (0.48 mg/L aerosol) inhaled
# [10] = D8, low-dose 0.54 mg/kg (0.07 mg/L aerosol) inhaled
smiles,measurement,setting,value
CSCC[C@H](N)C(=O)NCC(=O)N[C@@H](CCCNC(=N)N)C(=O)N[C@@H](Cc1ccccc1)C(=O)N[C@@H](CCCCN)C(=O)N[C@@H](CCCNC(=N)N)C(=O)N[C@@H](Cc1ccccc1)C(=O)N[C@@H](CCCNC(=N)N)C(=O)N[C@@H](CCCCN)C(=O)N[C@@H](CCCCN)C(=O)N[C@@H](Cc1ccccc1)C(=O)N[C@@H](CCCCN)C(=O)N[C@@H](CCCCN)C(=O)N[C@@H](CC(C)C)C(=O)N[C@@H](Cc1ccccc1)C(=O)N[C@@H](CCCCN)C(=O)N[C@@H](CCCCN)C(=O)N[C@@H](CC(C)C)C(=O)N[C@@H](CO)C(=O)O [polypeptide] (H-MGRFKRFRKKFKKLFKKLS-OH),FEV200 (forced expiratory volume),[1]; [6],3.77 ± 1.07 mL
same,FEV200/FVC,[1]; [6],93.81 ± 3.03%
same,FVC: forced vital capacity,[1]; [6],4.01 ± 1.08 mL
same,MV: minute ventilation,[1]; [6],0.20 ± 0.04
same,PaCO2: partial pressure of carbon dioxide,[1]; [6],33.09 ± 8.33 mmHg
same,PaO2: partial pressure of oxygen,[1]; [6],82.77 ± 11.87 mmHg
same,VT: tidal volume,[1]; [6],1.76 ± 0.25 mL
same,arterial blood pH,[1]; [6],7.46 ± 0.04
same,f: respiratory rate,[1]; [6],116 ± 15 time/min
same,Lung tissue microscopy,"[1]; D8, not modeled rats (blank administration group), cumulative dose 22.2 mg/kg aerosol inhaled",no obvious abnormality
same,"lung function indexes, and WBC, Neu, TNF-α, and IL-6 in alveolar lavage fluid compared with the blank control group",[1]; SD rats inhaled 22.2 mg/kg polypeptide solution through nose and mouth for 7 consecutive days,no significant difference
same,body weight compared with the blank control group,"[1]; not modeled rats (blank administration group), cumulative dose 22.2 mg/kg, FIG. 4",no significant difference
same,body weight compared with the model control group,[2]; high-dose 3.7 mg/kg (0.48 mg/L aerosol) inhaled,no significant difference
same,body weight compared with the model control group,[2]; low-dose 0.54 mg/kg (0.07 mg/L aerosol) inhaled,no significant difference
same,Inhibition rate of staphylococcus aureus,[3]; [7],90.99%
same,Inhibition rate of staphylococcus aureus,[3]; [8],80.56%
same,Inhibition rate of staphylococcus aureus,[3]; [9],97.43%
same,Inhibition rate of staphylococcus aureus,[3]; [10],96.75%
same,Inhibition rate of streptococcus pneumoniae,[4]; [7],90.49%
same,Inhibition rate of streptococcus pneumoniae,[4]; [8],84.14%
same,Inhibition rate of streptococcus pneumoniae,[4]; [9],98.74%
same,Inhibition rate of streptococcus pneumoniae,[4]; [10],94.95%
same,Inhibition rate of escherichia coli,[5]; [7],92.16%
same,Inhibition rate of escherichia coli,[5]; [8],71.19%
same,Inhibition rate of escherichia coli,[5]; [9],96.57%
same,Inhibition rate of escherichia coli,[5]; [10],85.77%

# — patent US20230330178A1, “USE OF POLYPEPTIDE IN DRUG FOR PREVENTING AND TREATING PNEUMONIA” (priority 2020, published 2023)
